Results as given in the supplement of paper PMC13207355.
Counter-ions that a name gives are not always drawn.

Columns and labels:
Conditions in all cases: exposure time: 72 h
E28 [1] = patient-derived glioblastoma stem cells of classical subtype; assay: surviving fraction (nuclei count normalised to DMSO); higher = more cells surviving (less toxic)
E31 [2] = patient-derived glioblastoma stem cells of proneural subtype; assay: as above
E21 [3] = patient-derived glioblastoma stem cells of mesenchymal subtype; assay: as above
E57 [4] = patient-derived glioblastoma stem cells of mesenchymal subtype; assay: as above
FT3469 [5] = normal neural stem cell line; assay: as above
E34 [6] = patient-derived glioblastoma stem cells of proneural subtype; assay: as above
E13 [7] = patient-derived glioblastoma stem cells of classical subtype; assay: as above
E28 [8] = assay: phenotypic distance (Euclidean, principal components) from DMSO controls (arbitrary units); higher = stronger morphological change
E31 [9] = assay: as above
E21 [10] = assay: as above
E57 [11] = assay: as above
FT3469 [12] = assay: as above
E34 [13] = assay: as above
E13 [14] = assay: as above
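Wherever phenotypic distance (Euclidean, principal components) from DMSO controls is given: cell Painting imaging in 384-well plates, CellProfiler features reduced to at least 20 principal components, Euclidean distance versus same-plate DMSO vehicle wells (0.1% v/v), median over six images per well.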
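Wherever surviving fraction (nuclei count normalised to DMSO) is given: nuclei counted by high-content imaging of Hoechst-stained cells in laminin-coated 384-well plates, relative to 0.1% DMSO vehicle wells, with staurosporine as cell-death control.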

SMILES: CC(C)NCC(O)c1cc(O)cc(O)c1 (configuration not stated) [Metaproterenol sulfate, orciprenaline sulfate]
- surviving fraction (E28 [1]; 4.1 nM): 1.2
- surviving fraction (E28 [1]; 12.3 nM): 1.1
- surviving fraction (E28 [1]; 37 nM): 1.06
- surviving fraction (E28 [1]; 111.1 nM): 1.14
- surviving fraction (E28 [1]; 333.3 nM): 1.21
- surviving fraction (E28 [1]; 1000 nM): 1.04
- surviving fraction (E28 [1]; 3000 nM): 1.13
- surviving fraction (E31 [2]; 4.1 nM): 0.982
- surviving fraction (E31 [2]; 12.3 nM): 1.02
- surviving fraction (E31 [2]; 37 nM): 0.984
- surviving fraction (E31 [2]; 111.1 nM): 1.14
- surviving fraction (E31 [2]; 333.3 nM): 1.02
- surviving fraction (E31 [2]; 1000 nM): 1.13
- surviving fraction (E31 [2]; 3000 nM): 1.03
- surviving fraction (E21 [3]; 4.1 nM): 1
- surviving fraction (E21 [3]; 12.3 nM): 0.995
- surviving fraction (E21 [3]; 37 nM): 1.01
- surviving fraction (E21 [3]; 111.1 nM): 1.05
- surviving fraction (E21 [3]; 333.3 nM): 1.13
- surviving fraction (E21 [3]; 1000 nM): 1.02
- surviving fraction (E21 [3]; 3000 nM): 1.07
- surviving fraction (E57 [4]; 4.1 nM): 1.18
- surviving fraction (E57 [4]; 12.3 nM): 1.11
- surviving fraction (E57 [4]; 37 nM): 1.14
- surviving fraction (E57 [4]; 111.1 nM): 0.953
- surviving fraction (E57 [4]; 333.3 nM): 1.07
- surviving fraction (E57 [4]; 1000 nM): 1.18
- surviving fraction (E57 [4]; 3000 nM): 1.02
- surviving fraction (FT3469 [5]; 4.1 nM): 1.18
- surviving fraction (FT3469 [5]; 12.3 nM): 1.32
- surviving fraction (FT3469 [5]; 37 nM): 1.05
- surviving fraction (FT3469 [5]; 111.1 nM): 1.14
- surviving fraction (FT3469 [5]; 333.3 nM): 1.13
- surviving fraction (FT3469 [5]; 1000 nM): 1.04
- surviving fraction (FT3469 [5]; 3000 nM): 1.22
- surviving fraction (E34 [6]; 4.1 nM): 0.922
- surviving fraction (E34 [6]; 12.3 nM): 1.02
- surviving fraction (E34 [6]; 37 nM): 1.04
- surviving fraction (E34 [6]; 111.1 nM): 0.924
- surviving fraction (E34 [6]; 333.3 nM): 1.02
- surviving fraction (E34 [6]; 1000 nM): 1.24
- surviving fraction (E34 [6]; 3000 nM): 0.961
- surviving fraction (E13 [7]; 4.1 nM): 0.979
- surviving fraction (E13 [7]; 12.3 nM): 0.957
- surviving fraction (E13 [7]; 37 nM): 1.06
- surviving fraction (E13 [7]; 111.1 nM): 0.933
- surviving fraction (E13 [7]; 333.3 nM): 1.06
- surviving fraction (E13 [7]; 1000 nM): 0.995
- surviving fraction (E13 [7]; 3000 nM): 1.06
- phenotypic distance (E28 [8]; 4.1 nM): 0.775
- phenotypic distance (E28 [8]; 12.3 nM): 0.464
- phenotypic distance (E28 [8]; 37 nM): 0.677
- phenotypic distance (E28 [8]; 111.1 nM): 0.689
- phenotypic distance (E28 [8]; 333.3 nM): 1.06
- phenotypic distance (E28 [8]; 1000 nM): 0.558
- phenotypic distance (E28 [8]; 3000 nM): 0.934
- phenotypic distance (E31 [9]; 4.1 nM): 0.663
- phenotypic distance (E31 [9]; 12.3 nM): 0.455
- phenotypic distance (E31 [9]; 37 nM): 0.562
- phenotypic distance (E31 [9]; 111.1 nM): 0.625
- phenotypic distance (E31 [9]; 333.3 nM): 0.672
- phenotypic distance (E31 [9]; 1000 nM): 0.447
- phenotypic distance (E31 [9]; 3000 nM): 0.615
- phenotypic distance (E21 [10]; 4.1 nM): 0.506
- phenotypic distance (E21 [10]; 12.3 nM): 0.541
- phenotypic distance (E21 [10]; 37 nM): 0.821
- phenotypic distance (E21 [10]; 111.1 nM): 2.96
- phenotypic distance (E21 [10]; 333.3 nM): 0.869
- phenotypic distance (E21 [10]; 1000 nM): 0.684
- phenotypic distance (E21 [10]; 3000 nM): 0.751
- phenotypic distance (E57 [11]; 4.1 nM): 0.966
- phenotypic distance (E57 [11]; 12.3 nM): 0.872
- phenotypic distance (E57 [11]; 37 nM): 0.874
- phenotypic distance (E57 [11]; 111.1 nM): 0.737
- phenotypic distance (E57 [11]; 333.3 nM): 1
- phenotypic distance (E57 [11]; 1000 nM): 0.774
- phenotypic distance (E57 [11]; 3000 nM): 0.716
- phenotypic distance (FT3469 [12]; 4.1 nM): 1.07
- phenotypic distance (FT3469 [12]; 12.3 nM): 1.13
- phenotypic distance (FT3469 [12]; 37 nM): 0.697
- phenotypic distance (FT3469 [12]; 111.1 nM): 0.559
- phenotypic distance (FT3469 [12]; 333.3 nM): 0.916
- phenotypic distance (FT3469 [12]; 1000 nM): 1.01
- phenotypic distance (FT3469 [12]; 3000 nM): 1.08
- phenotypic distance (E34 [13]; 4.1 nM): 0.654
- phenotypic distance (E34 [13]; 12.3 nM): 0.671
- phenotypic distance (E34 [13]; 37 nM): 0.473
- phenotypic distance (E34 [13]; 111.1 nM): 0.805
- phenotypic distance (E34 [13]; 333.3 nM): 0.747
- phenotypic distance (E34 [13]; 1000 nM): 0.882
- phenotypic distance (E34 [13]; 3000 nM): 0.769
- phenotypic distance (E13 [14]; 4.1 nM): 0.452
- phenotypic distance (E13 [14]; 12.3 nM): 0.546
- phenotypic distance (E13 [14]; 37 nM): 0.581
- phenotypic distance (E13 [14]; 111.1 nM): 0.458
- phenotypic distance (E13 [14]; 333.3 nM): 0.743
- phenotypic distance (E13 [14]; 1000 nM): 0.439
- phenotypic distance (E13 [14]; 3000 nM): 0.72

SMILES: Cc1cc(C(C)(C)CC(C)(C)C)ccc1OCCOCC[N+](C)(C)Cc1ccccc1 [Methyl benzethonium chloride]
- surviving fraction (E28 [1]; 4.1 nM): 1.18
- surviving fraction (E28 [1]; 37 nM): 1.12
- surviving fraction (E28 [1]; 111.1 nM): 1.01
- surviving fraction (E28 [1]; 333.3 nM): 1.03
- surviving fraction (E28 [1]; 1000 nM): 0.915
- surviving fraction (E28 [1]; 3000 nM): 0.122
- surviving fraction (E31 [2]; 4.1 nM): 1.14
- surviving fraction (E31 [2]; 37 nM): 1.3
- surviving fraction (E31 [2]; 111.1 nM): 0.971
- surviving fraction (E31 [2]; 333.3 nM): 1.04
- surviving fraction (E31 [2]; 1000 nM): 0.959
- surviving fraction (E31 [2]; 3000 nM): 0.0251
- surviving fraction (E21 [3]; 4.1 nM): 1.05
- surviving fraction (E21 [3]; 37 nM): 1.08
- surviving fraction (E21 [3]; 111.1 nM): 1.13
- surviving fraction (E21 [3]; 333.3 nM): 1.09
- surviving fraction (E21 [3]; 1000 nM): 1.11
- surviving fraction (E21 [3]; 3000 nM): 0.0579
- surviving fraction (E57 [4]; 4.1 nM): 1.1
- surviving fraction (E57 [4]; 37 nM): 1.08
- surviving fraction (E57 [4]; 111.1 nM): 0.952
- surviving fraction (E57 [4]; 333.3 nM): 1.08
- surviving fraction (E57 [4]; 1000 nM): 0.992
- surviving fraction (E57 [4]; 3000 nM): 0.232
- surviving fraction (FT3469 [5]; 4.1 nM): 1.08
- surviving fraction (FT3469 [5]; 37 nM): 1.23
- surviving fraction (FT3469 [5]; 111.1 nM): 1.28
- surviving fraction (FT3469 [5]; 333.3 nM): 0.993
- surviving fraction (FT3469 [5]; 1000 nM): 0.937
- surviving fraction (FT3469 [5]; 3000 nM): 0.135
- surviving fraction (E34 [6]; 4.1 nM): 1.05
- surviving fraction (E34 [6]; 37 nM): 1.16
- surviving fraction (E34 [6]; 111.1 nM): 1.28
- surviving fraction (E34 [6]; 333.3 nM): 1.15
- surviving fraction (E34 [6]; 1000 nM): 0.97
- surviving fraction (E34 [6]; 3000 nM): 0.507
- surviving fraction (E13 [7]; 4.1 nM): 1.06
- surviving fraction (E13 [7]; 37 nM): 0.985
- surviving fraction (E13 [7]; 111.1 nM): 1
- surviving fraction (E13 [7]; 333.3 nM): 0.905
- surviving fraction (E13 [7]; 1000 nM): 0.77
- surviving fraction (E13 [7]; 3000 nM): 0.0607
- phenotypic distance (E28 [8]; 4.1 nM): 0.909
- phenotypic distance (E28 [8]; 37 nM): 0.85
- phenotypic distance (E28 [8]; 111.1 nM): 0.845
- phenotypic distance (E28 [8]; 333.3 nM): 1.63
- phenotypic distance (E28 [8]; 1000 nM): 1.45
- phenotypic distance (E28 [8]; 3000 nM): 5.99
- phenotypic distance (E31 [9]; 4.1 nM): 0.64
- phenotypic distance (E31 [9]; 37 nM): 1.09
- phenotypic distance (E31 [9]; 111.1 nM): 0.959
- phenotypic distance (E31 [9]; 333.3 nM): 1.67
- phenotypic distance (E31 [9]; 1000 nM): 1.56
- phenotypic distance (E31 [9]; 3000 nM): 10.6
- phenotypic distance (E21 [10]; 4.1 nM): 0.505
- phenotypic distance (E21 [10]; 37 nM): 0.8
- phenotypic distance (E21 [10]; 111.1 nM): 1.42
- phenotypic distance (E21 [10]; 333.3 nM): 1.89
- phenotypic distance (E21 [10]; 1000 nM): 1.88
- phenotypic distance (E21 [10]; 3000 nM): 7.45
- phenotypic distance (E57 [11]; 4.1 nM): 0.767
- phenotypic distance (E57 [11]; 37 nM): 0.775
- phenotypic distance (E57 [11]; 111.1 nM): 0.964
- phenotypic distance (E57 [11]; 333.3 nM): 1.11
- phenotypic distance (E57 [11]; 1000 nM): 1.42
- phenotypic distance (E57 [11]; 3000 nM): 5.11
- phenotypic distance (FT3469 [12]; 4.1 nM): 0.966
- phenotypic distance (FT3469 [12]; 37 nM): 0.81
- phenotypic distance (FT3469 [12]; 111.1 nM): 1.14
- phenotypic distance (FT3469 [12]; 333.3 nM): 1.12
- phenotypic distance (FT3469 [12]; 1000 nM): 0.916
- phenotypic distance (FT3469 [12]; 3000 nM): 5.6
- phenotypic distance (E34 [13]; 4.1 nM): 0.669
- phenotypic distance (E34 [13]; 37 nM): 1.03
- phenotypic distance (E34 [13]; 111.1 nM): 3.75
- phenotypic distance (E34 [13]; 333.3 nM): 1.62
- phenotypic distance (E34 [13]; 1000 nM): 1.37
- phenotypic distance (E34 [13]; 3000 nM): 2.97
- phenotypic distance (E13 [14]; 4.1 nM): 0.567
- phenotypic distance (E13 [14]; 37 nM): 0.631
- phenotypic distance (E13 [14]; 111.1 nM): 0.7
- phenotypic distance (E13 [14]; 333.3 nM): 1.46
- phenotypic distance (E13 [14]; 1000 nM): 2.26
- phenotypic distance (E13 [14]; 3000 nM): 7.09
